Data published in patent US6231894A, “Treatments based on discovery that nitric oxide synthase is a paraquat diaphorase” (Duke University, priority 1999, dated 2001).

Key:
[1] = Working Example X: embolic stroke patient; assay type: in vivo, human; conditions: 10 mg IV bolus followed by 4.5 mg per kilogram per minute; L-NMMA 30 minutes, L-NAME following day
Description: A person with middle cerebral arterial embolic stroke presents to the Emergency Room unconscious. […] After 30 minutes the therapy is stopped and they receive L-NAME at the same dose.

[2] = Working Example IV: patient with E. Coli bacteremia; assay type: in vivo, human
Description: A person with E. Coli bacteremia presents with a fever of 101° F. and a blood pressure of 70/50. […] The drug is stopped and they are begun on NO-derivatized L-NAME at 0.1 mg/kg/minute. […] Blood pressure rises to 100/80.

[3] = system: CPA-47 endothelial cell line; test: LDH release from endothelial cells (cytotoxicity); assay type: cell-based; conditions: increasing inhibitor concentrations with 2 mM paraquat, 24 hours; FIG. 2(b)
Description: To test whether the above effect was present in intact cells, endothelial cell cultures, constitutively expressing NOS3 protein as determined by western blot analysis, were treated with 2 mM paraquat in the presence of increasing concentrations of either L-NAME or L-NMMA.
The endothelial cells were obtained as follows: CPA-47 endothelial cell line (CRL-1733) was purchased from American Type Culture Collection (Manassas, Va.). Endothelial cells were grown in T-75 flasks containing Ham's F-12 K medium supplemented by 1 mM […] and 10% equine serum (Gibco-BRL, Grand Island, N.Y.). Endothelial cells were plated at 3.5×10^4 cells/well in 24-well plates and experiments were performed 48 hours later when cells were near confluence. Medium was changed to minimal essential medium without serum supplement. Endothelial cells were from passages 30-36.
Cytotoxicity was measured as the percent release of LDH and compared to vehicl-treated cells (basal). The percent release of cytosolic lactate dehydrogenase (LDH) into the culture medium was used to assess the integrity of the cell membrane. LDH activity was measured by following the loss of NADH at 340 nm as described in Day, B. J., et al., J. Pharmacol. Exp. Ther. 275, 1227-1232 (1995). The percent release of LDH into the culture medium 24 hours after the paraquat treatment was used to assess cell injury.

[4] = molecular target: T1, Recombinant rat neuronal nitric oxide synthase (NOS1) (Rattus norvegicus, UniProt P29476); test: NADPH oxidation (paraquat diaphorase activity) by recombinant rat neuronal nitric oxide synthase; assay type: biochemical; conditions: NOS inhibitor 1 mM, FIG. 2(a); for effect on paraquat-stimulated NADPH oxidation: 25 μM paraquat; for effect on basal NADPH oxidation: no paraquat
T1 construct: purchased Oxis, Portland, Oreg
Description: Recombinant rat neuronal nitric oxide synthase (NOS1, Oxis, Portland, Oreg.), a constitutive enzyme, was used to assay NADPH oxidation in the presence of increasing concentrations of paraquat. Reactions (0.2 ml) were performed in bis-tris propane buffer (40 mM) containing L-arginine (1 mM), CaCl2 (1.2 mM), EDTA (0.9 mM), NADPH (0.35 mM), dithiothreitol (3 mM), tetrahydrobiopterin (4 μM), catalase (1 μg/ml) and calmodulin (200 U/ml) at pH 7.4. Reactions were initiated by the addition of 1.5 U of NOS1, and the oxidation of NADPH was continuously monitored at 340 nm for 1 minute at 37° C. in a plate reader. The rate of NOS-mediated NADPH oxidation was determined using an extinction coefficient of 6.22 mM^-1 cm^-1 after subtracting the baseline of NADPH oxidation.
The experiment of Background Example 1 for NADPH oxidation was carried out in the presence and absence of 25 μM paraquat, without any NOS inhibitor (control), in the presence of L-NAME (1 mM) or in the presence of 1 mM L-NMMA. […] Only L-NAME shut down the NADPH oxidase activity.

[5] = Working Example XIV: congestive heart failure and COPD patient; assay type: in vivo, human; conditions: 10 milligram per kilogram IV bolus and IV drip 0.5 milligrams per kilograms per minute
From the text: A patient with congestive heart failure and COPD presents acutely short of breath. They are intubated for respiratory failure. […] Their FEV1 is 0.8. The patient has a protracted hospital course and attempts to wean them from the ventilator are unsuccessful. They are then started on 10 milligram per kilogram IV bolus of L-NMMA and an intravenous drip at 0.5 milligrams per kilograms per minute.

solid tumor = test: Working Example VII: solid tumor patient; assay type: in vivo, human; conditions: treatment for seven days
Description: A person is given the anti-tumor agent 5,6 dimethylxanthemone-4-acetic acid (5,6 MEXAA) to treat a solid tumor identified by biopsy on the left lower extremity, and lung. […] At this time, the patient is treated with intravenous infusion of paraquat (4 milligram per kilogram) for seven cycles.

[6] = Working Example III: stroke patient; assay type: in vivo, human
From the text: A person presents with confusion and weakness in the left arm. […] The L-NAME is stopped and the patient is given an NO derivatized L-NAME compound at 0.1 milligram per kilogram per minute IV which lowers the blood pressure to 170/100.

[7] = Working Example IX: breast cancer patient with adriamycin toxicity; assay type: in vivo, human
From the text: A person with metastatic breast cancer receives adriamycin in the standard regimen. […] They are begun on the nitric oxide synthase inhibitor L-NAME 0.5 milligrams per kilogram per minute and their systolic blood pressure is then titrated to 100-120 mm Hg. Over the following two weeks, their ejection fraction improves to 50% and the drug is stopped.

breast cancer = test: Working Examples XI and XII: breast cancer patient; assay type: in vivo, human
Description: A person presents with breast cancer and is treated with standard regimen including adriamycin. […] They are given an infusion of a temperature-sensitive liposome encapsulated nitric oxide synthase, which is released in to the tumor by local heat (40-42° centigrate).
The adriamycin infusion in Example X after liposome encapsulated nitric oxide synthase treatment is replaced by 2 mg per day of diquat for six days.

Rabbit aortic rings [8] = test: Acetylcholine-induced (EDRF) relaxation of aortic rings; conditions: Oryctolagus cuniculus; L-NAME (2 mM), acetylcholine, phenylephrine 1 μM; FIG. 3(a); read-out: inhibition of the relaxation response
Description: Rabbit aortic rings were treated with increasing concentrations of paraquat or L-NAME (2 mM) prior to initiating a constriction response with 1 μM phenylephrine (initial contraction).
(§1) New Zealand white male rabbits weighting 3-4 kg were anaesthetized with phenobarbital (30 mg/kg/iv). The descending thoracic aorta was isolated and placed in Krebs-Henseleit buffer (pH 7.4) and stored at 4° C. until used. The vessels were cut into 5 mm rings and submerged in 25 ml double jacketed tissue baths containing Krebs-Henseleit buffer bubbled with 95% oxygen and 5% carbon dioxide at 37° C. Rings were hung on stainless steel stirrups connected to calibrated force transducers. Rings were equilibrated with 2 g resting tension for 1 hour before use and contracted with phenylephrine (1 μM). Rings were incubated with paraquat for 15 minutes before acetylcholine-induced or exogenous relaxations were performed.
Endothelial-derived relaxing factor (EDRF) responses were initiated by addition of acetylcholine.

[9] = Working Example I: patient exposed to paraquat; assay type: in vivo, human; conditions: L-NAME IV 0.1 mg per kilogram per minute
Description: A person presents complaining of shortness of breath after working with paraquat. […] An intravenous line is inserted and the patient is started on IV infusion of 0.1 mg per kilogram per minute L-NAME. […] Over the following two days they are weaned off L-NAME.

[10] = Therapeutic use of NO-derivatized L-NAME variant; assay type: in vivo; conditions: nitrite ester variant
From the text: The invention is explained and illustrated by the following background examples and working examples. In the examples the NO-derivatized LNAME is the compound of formula (I) where R^3 is CH3 and R^1 is --(CH2)2 --ONO2. This compound is made by starting with N^ω -nitro-α-(2-hydroxyethyl)-L-arginine made as described above, forming the tert-butyloxycarbonyl derivative, dissolving in methanol, adding […], using non-aqueous trifluoroacetic acid to remove the protecting group and converting to the nitrate ester.

Rabbit aortic rings [11] = test: Exogenous NO-induced relaxation of aortic rings; conditions: 2 mM paraquat, phenylephrine 1 μM; FIG. 3(b)
Description: as §1
In another case, rabbit aortic rings were constricted with 1 μM phenylephrine (initial contraction) and relaxed with increasing concentration of NO in the presence or absence of 2 mM paraquat. The results are shown in FIG. 3(b) where relaxations are expressed as a percent of the initial phenylephrine-induced contraction.

[12] = system: RAW-264.7 monocyte macrophage cells; test: LDH release from macrophages (cytotoxicity); assay type: cell-based; conditions: conclusion of Background Example 4
Description: The RAW-264.7 monocyte macrophage cells line (TIB-71) was purchased from the American Type Culture Collection (Manassas, Va.). The cells were grown in T-75 flasks containing DMEM (Gibco-BRL, Grand Island, N.Y.) supplemented with 1 mM pyruvate, 4.5 g/L glucose and […] fetal bovine serum Macrophages were plated at 2.0×10^4 cells/well in 24-well plates and experiments were performed when cells were near confluence. Macrophages were immunostimulated with 50 ng/ml lipopolysaccharide (LPS) from E. coli serotype 0111:B4 (Signia, St. Louis, Mo.) and 50 U/ml recombinant mouse interferon gamma (INF-γ, R&D Systems, Minneapolis,Minn.). Macrophages were used between passages 2-8. Cell cultures were kept in a 37° C. incubator with air and 5% carbon dioxide.
NOS2 was induced in RAW cells using a mixture of interferon-γ and lipopolysaccharide (LPS) referred to as "cytomix." Unstimulated (basal) and activated (cytomix) macrophages were treated with 0.1 mM paraquat or not treated with paraquat and cytotoxicity and NO production were assessed at 24 hours.
Cell injury was assessed by measuring LDH release.
To further exclude the role of peroxynitrite, macrophages were treated with increasing concentrations of the NO-donor, DETA NONOate in the presence of 0.1 mM paraquat. Macrophage cytotoxicity and NO release were assessed 24 hours after treatments. Cell injury was assessed by measuring LDH release.

[13] = 0.1 mg/kg/minute, after L-NMMA stopped
[14] = 0.1 milligram per kilogram per minute IV

T1 sequence (P29476 whole entry): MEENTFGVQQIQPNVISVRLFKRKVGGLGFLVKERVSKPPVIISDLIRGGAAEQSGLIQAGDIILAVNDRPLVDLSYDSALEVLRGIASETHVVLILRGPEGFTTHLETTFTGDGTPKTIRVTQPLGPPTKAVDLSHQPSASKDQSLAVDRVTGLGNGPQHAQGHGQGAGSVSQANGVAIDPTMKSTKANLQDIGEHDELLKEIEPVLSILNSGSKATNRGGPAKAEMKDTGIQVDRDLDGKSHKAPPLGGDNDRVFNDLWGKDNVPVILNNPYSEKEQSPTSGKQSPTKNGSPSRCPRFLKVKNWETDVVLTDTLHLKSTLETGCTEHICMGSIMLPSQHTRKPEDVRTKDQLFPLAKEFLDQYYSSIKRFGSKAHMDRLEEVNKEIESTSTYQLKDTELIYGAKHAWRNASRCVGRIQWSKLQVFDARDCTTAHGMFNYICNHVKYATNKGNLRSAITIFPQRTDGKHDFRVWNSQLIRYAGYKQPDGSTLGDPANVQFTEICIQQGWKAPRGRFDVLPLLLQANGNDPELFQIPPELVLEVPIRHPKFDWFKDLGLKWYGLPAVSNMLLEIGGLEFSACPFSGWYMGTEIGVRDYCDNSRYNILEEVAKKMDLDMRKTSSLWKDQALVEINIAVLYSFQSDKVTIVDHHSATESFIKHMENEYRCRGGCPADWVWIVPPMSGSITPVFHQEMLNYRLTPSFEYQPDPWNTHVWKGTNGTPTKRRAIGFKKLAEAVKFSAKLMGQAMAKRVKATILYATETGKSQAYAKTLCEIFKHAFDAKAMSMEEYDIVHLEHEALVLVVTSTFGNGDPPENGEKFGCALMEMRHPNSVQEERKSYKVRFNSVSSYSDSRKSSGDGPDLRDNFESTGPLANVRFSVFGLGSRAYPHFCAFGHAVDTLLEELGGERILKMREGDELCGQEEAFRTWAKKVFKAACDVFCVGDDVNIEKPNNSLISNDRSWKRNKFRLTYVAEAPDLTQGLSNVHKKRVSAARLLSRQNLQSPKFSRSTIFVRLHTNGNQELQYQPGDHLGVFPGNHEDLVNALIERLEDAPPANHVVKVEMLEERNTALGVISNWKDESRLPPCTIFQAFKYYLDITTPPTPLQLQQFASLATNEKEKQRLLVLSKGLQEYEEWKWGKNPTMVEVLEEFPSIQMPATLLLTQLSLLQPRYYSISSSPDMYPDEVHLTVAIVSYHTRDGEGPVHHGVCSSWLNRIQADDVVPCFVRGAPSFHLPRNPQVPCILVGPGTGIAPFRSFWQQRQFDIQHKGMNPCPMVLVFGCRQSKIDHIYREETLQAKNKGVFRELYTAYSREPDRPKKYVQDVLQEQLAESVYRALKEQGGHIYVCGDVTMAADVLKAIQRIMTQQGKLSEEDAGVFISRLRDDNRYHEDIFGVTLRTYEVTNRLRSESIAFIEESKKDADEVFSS

Question: For CNC(=N)NCCC[C@H](N)C(=O)O [L-NMMA, L-N-methylarginine], which improvement / consciousness [1] is on record?
Answer: without improvement

Question: What about the “pulmonary hypertension and cardiac output” value ([2]; L-NMMA infusion 10 mg/kg/hr.) of the same compound?
Answer: profound pulmonary hypertension and a fall in cardiac output

Question: And the “protection from paraquat toxicity (LDH release)” value [3]?
Answer: not L-NMMA, produced a dose-dependent protection from paraquat toxicity

Question: And the “effect on paraquat-stimulated NADPH oxidation” value [4]?
Answer: partially blocked paraquat-induced NADPH oxidation

Question: And the “effect on basal NADPH oxidation” value [4]?
Answer: small increase in basal NADPH oxidation

Question: And the “weaning from the ventilator” value [5]?
Answer: weaned from the ventilator over the following day

Question: With Cc1ccc2c(=O)c3cccc(CC(=O)O)c3oc2c1C [5,6 MEXAA, 5,6 dimethylxanthemone-4-acetic acid] as the compound, how does the “nitric oxide synthase expression in the tumor on biopsy” value (solid tumor) read?
Answer: increase in nitric oxide synthase expression in the tumor

Question: Which cardiac output [2, 13] does the source give for COC(=O)[C@@](N)(CCCNC(=N)N[N+](=O)[O-])CCO[N+](=O)[O-] [NO-derivatized L-NAME] here?
Answer: Cardiac output normalizes

Question: And the pulmonary pressure [2, 13]?
Answer: Pulmonary pressure normalizes

Question: What about the blood pressure ([2]; 0.1 mg/kg/minute, 70/50 at presentation) of the same compound?
Answer: 100/80

Question: And the symptoms of stroke [6, 14]?
Answer: symptoms of confusion abate and motion returns to the arm

Question: What about the “blood pressure after switch to NO derivatized L-NAME” value ([6]; 0.1 milligram per kilogram per minute IV, from 220/110) of the same compound?
Answer: 170/100

Question: Which results are given for COc1cccc2c1C(=O)c1c(O)c3c(c(O)c1C2=O)C[C@@](O)(C(=O)CO)C[C@@H]3O[C@H]1C[C@H](N)[C@H](O)[C@H](C)O1 [adriamycin]?
Answer: adverse effect of adriamycin ([7]; standard regimen): light sensitivity and shortness of breath; ejection fraction after adriamycin ([7]; standard regimen, echocardiogram): 35%; tumor regression (breast cancer; adriamycin after temperature-sensitive liposome encapsulated nitric oxide synthase released by local heat, six cycles): the tumor is shown to regress after six cycles of therapy; tumor response to adriamycin alone (breast cancer; standard regimen including adriamycin): The tumor fails to respond

Question: What does the source list for COC(=O)[C@@H](N)CCCNC(=N)N[N+](=O)[O-] [L-NAME, L-nitroarginine, methyl ester]?
Answer: improvement / consciousness [1]: regains consciousness; ejection fraction on L-NAME ([7]; 0.5 milligrams per kilogram per minute, two weeks, from 35%): 50%; inhibition at 2000 µM (Rabbit aortic rings [8]): > 90%; protection from paraquat toxicity (LDH release) [3]: dose-dependent protection from paraquat toxicity; symptoms ([9]; over the day): symptoms improve over the day; arteriolar PO2 ([9]; increases from 60, over the day): 85 mm Hg; effect on paraquat-stimulated NADPH oxidation [4]: completely inhibited paraquat-stimulated NADPH oxidation; effect on basal NADPH oxidation [4]: little effect on basal NADPH oxidation; symptoms of stroke [6, 14]: symptoms do not improve; blood pressure during L-NAME ([6]; L-NAME 0.1 milligram per kilogram per minute IV): 220/110

Question: Which therapeutic results [10] does the source give for COC(=O)[C@@](N)(CCCNC(=N)N[N+](=O)[O-])CCON=O here?
Answer: Therapeutic results are also obtained

Question: Which results are given for nitric oxide [NO]?
Answer: effect on exogenously added NO-induced relaxation (Rabbit aortic rings [11]): NO still works in a system where NO is inhibited and superoxide is generated; cell killing / amelioration of toxicity, conclusion [12]: toxicity can be ameliorated by putting NO back into the system

Question: For c1cc[n+]2c(c1)-c1cccc[n+]1CC2 [diquat], which tumor regression (breast cancer; diquat 2 mg per day for six days after liposome encapsulated nitric oxide synthase) is on record?
Answer: The tumor is shown to regress
